Results from patent US20240409585A1, “MACROCYCLIC IMMUNOMODULATORS” (priority 2021, published 2024).
Where two headings read alike, the source gives them in different places. Numbered stars: 1 amine (or outer) side, 2 acyl side, 3 side chain; on linkers, the order of the positions; unused ones are H or OH. Bridge positions count the residues as written; N and C are the ends. Square brackets hold non-standard residues; d marks the D form. Peptide text beside a SMILES is read from it. * marks the point of attachment. Bip(4'-COOH) = N[C@@H](Cc1ccc(-c2ccc(C(=O)O)cc2)cc1)C(=O)O; Bip(4'-NHAc) = CC(=O)Nc1ccc(-c2ccc(C[C@H](N)C(=O)O)cc2)cc1; Phe(3-CF3) = N[C@@H](Cc1cccc(C(F)(F)F)c1)C(=O)O; Ala(morpholin-4-yl) = N[C@@H](CN1CCOCC1)C(=O)O; Phe(4-CONH2) = NC(=O)c1ccc(C[C@H](N)C(=O)O)cc1; Phe(4-COOH) = N[C@@H](Cc1ccc(C(=O)O)cc1)C(=O)O; X5 = CS(=O)(=O)NC(=O)C[C@H](N[*:1])C(=O)[*:2]; Bip = N[C@@H](Cc1ccc(-c2ccccc2)cc1)C(=O)O; Phe(3-Me) = Cc1cccc(C[C@H](N)C(=O)O)c1; hArg = N=C(N)NCCCC[C@H](N)C(=O)O; hPhe = N[C@@H](CCc1ccccc1)C(=O)O; Cha = N[C@@H](CC1CCCCC1)C(=O)O; Carboxymethyl = O=C(O)C*; NMeA = CN[C@@H](C)C(=O)O; Orn = NCCC[C@H](N)C(=O)O; Dab = NCC[C@H](N)C(=O)O

Target: T1, Alexa fluor-647 labeled human PD-L1-Ig binding to Jurkat cell line over-expressing human PD-1 (Homo sapiens, UniProt Q15116)
T1 construct: expressed in transfected cells; host or cells: Jurkat
Assay: Jurkat-PD-1 Cell Binding High-Content Screening Assay (CBA): Method 3 (Alexa fluor-647 labeled PD-L1-Ig)
Settings: Jurkat-PD-1 cells, Alexa fluor-647 labeled PD-L1-Ig 177 nM
Outline: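 Readout by high-content imaging of PFA-fixed, Hoechst-stained cells after 1 h with 177 nM (final) Alexa fluor-647 PD-L1-Ig. Compound was added first to hPD-1 Jurkat cells in RPMI plus 10% FCS for 2 h at 37 °C.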

[1] = head μM, read-out: CBA Method 3 μM

T1 sequence (Q15116 25-288): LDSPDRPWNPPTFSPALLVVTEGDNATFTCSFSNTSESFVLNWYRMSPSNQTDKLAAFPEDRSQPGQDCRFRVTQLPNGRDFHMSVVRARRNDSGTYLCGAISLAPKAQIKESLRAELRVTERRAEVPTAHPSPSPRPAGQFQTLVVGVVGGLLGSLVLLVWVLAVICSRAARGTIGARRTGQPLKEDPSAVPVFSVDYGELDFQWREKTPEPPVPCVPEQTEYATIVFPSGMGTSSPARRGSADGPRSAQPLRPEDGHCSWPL

| Compound | IC50 [1] [µM] | IC50 (nM, read-out: CBA Method 3) [µM] |
| --- | --- | --- |
| CC(=O)Nc1ccc(-c2ccc(C[C@@H]3NC(=O)[C@H](Cc4cccc(C(F)(F)F)c4)NC(=O)[C@H](CC(=O)NS(C)(=O)=O)NC(=O)[C@H](Cc4ccc(C(N)=O)cc4)NC(=O)[C@H](CC(C)C)NC(=O)CSC[C@@H](C(=O)N[C@@H](CCN)C(N)=O)NC(=O)[C@H](CC(N)=O)NC(=O)[C@H](C(C)C)NC(=O)[C@H](CC4CCCCC4)NC(=O)[C@H](CCN)NC(=O)[C@@H](CC(C)C)NC(=O)[C@H](C)N(C)C(=O)[C@H](Cc4ccc(C(N)=O)cc4)NC(=O)[C@H](Cc4ccc(-c5ccccc5)cc4)NC3=O)cc2)cc1 [Example 5114] ({CH2CO}-L[Phe(4-CONH2)][X5][Phe(3-CF3)][Bip(4'-NHAc)][Bip][Phe(4-CONH2)][NMeA][dL][Dab][Cha]VNC[Dab]-NH2; thioether N-14) | 0.11 | – |
| CC(C)C[C@H]1NC(=O)[C@H](C)N(C)C(=O)[C@H](Cc2ccc(C(N)=O)cc2)NC(=O)[C@H](Cc2ccc(-c3ccccc3)cc2)NC(=O)[C@H](Cc2ccc(OCC(=O)O)cc2)NC(=O)[C@H](Cc2cccc(C(F)(F)F)c2)NC(=O)[C@H](CC(=O)O)NC(=O)[C@H](Cc2ccc(O)cc2)NC(=O)[C@H](CN2CCOCC2)NC(=O)CSC[C@@H](C(=O)N[C@@H](CCN)C(N)=O)NC(=O)[C@H](CCCN)NC(=O)[C@H](C(C)C)NC(=O)[C@H](CC2CCCCC2)NC(=O)[C@H](CCN)NC1=O [Example 5262] ({CH2CO}-[Ala(morpholin-4-yl)]YD[Phe(3-CF3)]Y(Carboxymethyl)[Bip][Phe(4-CONH2)][NMeA][dL][Dab][Cha]V[Orn]C[Dab]-NH2; thioether N-14) | 0.11 | – |
| Cc1cccc(C[C@@H]2NC(=O)[C@H](CC(=O)O)NC(=O)[C@H](Cc3ccc(OCC(=O)O)cc3)NC(=O)[C@H](CCCCNC(=N)N)NC(=O)CSC[C@@H](C(=O)N[C@@H](CCN)C(N)=O)NC(=O)[C@H](CCC(=O)O)NC(=O)[C@H](C(C)C)NC(=O)[C@H](CC3CCCCC3)NC(=O)[C@H](CCN)NC(=O)[C@@H](CC(C)C)NC(=O)[C@H](C)N(C)C(=O)[C@H](CCC(N)=O)NC(=O)[C@H](Cc3ccc(-c4ccccc4)cc3)NC(=O)[C@H](CCc3ccccc3)NC2=O)c1 [Example 5283] ({CH2CO}-[hArg]Y(Carboxymethyl)D[Phe(3-Me)][hPhe][Bip]Q[NMeA][dL][Dab][Cha]VEC[Dab]-NH2; thioether N-14) | 0.01 | – |
| CC(C)C[C@H]1NC(=O)[C@H](C)N(C)C(=O)[C@H](Cc2ccc(OCC(=O)O)cc2)NC(=O)[C@H](Cc2ccc(-c3ccccc3)cc2)NC(=O)[C@H](Cc2ccc(OCC(=O)O)cc2)NC(=O)[C@H](Cc2c[nH]c3ccccc23)NC(=O)[C@H](CC(=O)O)NC(=O)[C@H](Cc2ccc(-c3ccc(C(=O)O)cc3)cc2)NC(=O)[C@H](CN2CCOCC2)NC(=O)CSC[C@@H](C(=O)N[C@@H](CCN)C(N)=O)NC(=O)[C@H](CCC(=O)O)NC(=O)[C@H](C(C)C)NC(=O)[C@H](CC2CCCCC2)NC(=O)[C@H](CCN)NC1=O [Example 5117] ({CH2CO}-[Ala(morpholin-4-yl)][Bip(4'-COOH)]DWY(Carboxymethyl)[Bip]Y(Carboxymethyl)[NMeA][dL][Dab][Cha]VEC[Dab]-NH2; thioether N-14) | – | 0.0097 |
| Cc1cccc(C[C@@H]2NC(=O)[C@H](CC(=O)O)NC(=O)[C@H](Cc3ccc(OCC(=O)O)cc3)NC(=O)[C@H](CC(N)=O)NC(=O)CSC[C@@H](C(=O)N[C@@H](CCN)C(N)=O)NC(=O)[C@H](CCCN)NC(=O)[C@H](C(C)C)NC(=O)[C@H](CC3CCCCC3)NC(=O)[C@H](CCN)NC(=O)[C@@H](CC(C)C)NC(=O)[C@H](C)N(C)C(=O)[C@H](CCC(N)=O)NC(=O)[C@H](Cc3ccc(-c4ccccc4)cc3)NC(=O)[C@H](Cc3ccc(C(=O)O)cc3)NC2=O)c1 [Example 5187] ({CH2CO}-NY(Carboxymethyl)D[Phe(3-Me)][Phe(4-COOH)][Bip]Q[NMeA][dL][Dab][Cha]V[Orn]C[Dab]-NH2; thioether N-14) | – | 0.008 |
